From PubChem BioAssay (NCI) come the findings set out here.

Some test systems named below: 786-0 renal; CAKI-1 renal; COLO 205 colon; IGROV1 ovarian; MDA-MB-435; RPMI-8226 leukemia; SK-MEL-2 melanoma; SR leukemia; T-47D breast; UO-31 renal.
What all share (experiment): NCI tumour cell line growth inhibition, 48 h

SMILES strings stand for the structures.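 Where inhibition never reached the appropriate level, the endpoint shown equals the highest concentration tested. Otherwise, values were interpolated linearly from a five-concentration, 48-hour dose response in 96-well plates. The concentration for 50% growth inhibition is given as GI50. TGI marks complete inhibition of growth.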

Turning to `CNc1ccc(CSc2ccc(C)cc2)cc1`, the GI50 in the assay on 786-0 renal is 4.45 µM; with CAKI-1 renal it was 7.94 µM; with COLO 205 colon, 15.7 µM; in the assay with IGROV1 ovarian it was 13 µM; in the assay with MDA-MB-435, 13.1 µM; with RPMI-8226 leukemia, 1.52 µM. In addition, the GI50 was 38.5 µM with SK-MEL-2 melanoma, 6.15 µM in the assay with SR leukemia, 13.5 µM in the assay with T-47D breast and 1.16 µM in the assay with UO-31 renal. In addition, the TGI in the assay on 786-0 renal was more than 100 µM; with CAKI-1 renal, more than 100 µM; with COLO 205 colon, 29.3 µM; in the assay on IGROV1 ovarian, more than 100 µM; in the assay on MDA-MB-435 it was more than 100 µM; with RPMI-8226 leukemia it was 21.6 µM. The TGI in the assay on SK-MEL-2 melanoma is more than 100 µM; with SR leukemia, 90.1 µM; with T-47D breast, more than 100 µM; in the assay with UO-31 renal it was 4.32 µM.
Regarding `CC(=O)OCCc1cc2ccccc2oc1=O`, the TGI in the assay on 786-0 renal, with CAKI-1 renal, with COLO 205 colon, in the assay with IGROV1 ovarian, in the assay on MDA-MB-435 and in the assay with RPMI-8226 leukemia was more than 100 µM in each case. Besides, the TGI in the assay with SK-MEL-2 melanoma, in the assay on SR leukemia, with T-47D breast and with UO-31 renal was more than 100 µM throughout.
